Laboratory results taken from patent publication US20200318165A1, “Rapid Identification of Microorganisms” (Board of Regents of the Nevada System of Higher Education, …, priority 2015, published 2020).

Columns and labels:
[1] = Fluorescence of the probe itself without bacteria; format: physicochemical; conditions: excitation of 568 nm laser
Description: Methods were developed to distinguish different species of live bacteria by functionalization of C60 with RNA oligonucleotides hybridized with reporter compounds. The signature RNA oligonucleotides are designed in accordance with the signature information on 16s ribosome RNA, which is unique to each species (Reischl et al., Clin Chem 52, 1985-1987 (2006) and Dresios et al., Journal of molecular biology 345, 681-693 (2005), each of which is hereby incorporated by reference in its entirety). The strategy to recognize a certain bacteria is shown in FIGS. 20A-20C and operates as follows: • (1) C60 molecules were functionalized with signature RNA oligonucleotides containing signature information (e.g., calling card) of a certain species. The Signature RNA oligonucleotides were typically screened through bioinformatics analysis. • (2) A reporter sequence, which is conjugated to a fluorophore, was hybridized with the signature sequence. The fluorophore was silent while hybridized but fluoresced once released. • (3) The C60 complex penetrated the bacteria and released the reporter if the bacteria contained ribosomal signature information that matches the signature RNA oligonucleotide on the C60 complex. The released reporter sequence emitted a fluorescent signal and was detected while free in the cytoplasm. […]

[2] = tested on: B. subtilis; experiment: Cellular uptake monitored by Transmission Electron Microscopy; format: cell-based; conditions: 5 μg/mL, 30 min, FIG. 3B
Procedure: (§1) TEM was used to examine whether the retention of C60-pyrrolidine tris acid was localized within the cytosol. Microorganisms were incubated with C60-pyrrolidine tris acid (5 μg/mL) for 30 min. Cells were pelleted by centrifugation at 5,000 rcf (5 min) and washed 5 times with DI H2O. Microorganisms were fixed in 2.5% glutaraldehyde/PBS solution for 30 min. The cells were then pelleted by centrifugation at 5,000 rcf for 5 min. The cell pellet was placed in fresh 2.5% glutaraldehyde/PBS solution at 4° C. overnight. Next, cell pellets were dehydrated by a series of acetone treatments (30% for 15 min, 50% for 15 min, 70% for 15 min, 90% for 15 min and a final treatment at 100% for 30 min, and repeated 3 times), embedded in resin (2:1 mix of propylene oxide:resin for 1 hour, 1:1 mix of propylene oxide:resin for 1 hour, 1:2 mix of propylene oxide: resin for 1 hour, 100% resin overnight, and change to fresh resin 1 h), incubated for 24 h at 37° C., sectioned (60 nm in thickness), and imaged using a Tecnai 12 TEM.
(§2) To test the hypothesis that functionalized C60-pyrrolidine tris acid internalizes within the cell, microorganisms were imaged with TEM. Both E. coli and B. subtilis were incubated with C60-pyrrolidine tris acid, washed to remove excess compound, sectioned into slices of 60 nm thickness, and then imaged by TEM. […]

[3] = tested on: E. coli; experiment: as above; format: cell-based; conditions: 5 μg/mL, 30 min, FIG. 3A
Procedure: as §1, §2

With C60-pyrrolidine tris acid the Autofluorescence [1] was “no autofluorescence”, the “Localization in sectioned cells (TEM)” value [2] was “localizes within the cell” and the “Localization in sectioned cells (TEM)” value [3] was “localizes within the cell”.
